Data published in US12077568B2 (University of Houston System, priority 2018, dated 2024).

What was measured:
[1] = commercial insulins; cited from earlier work
normal mice = assay: Lowering of blood glucose level in normal mice; type: in vivo; details: intraperitoneal, 20-24 μg/mouse
Method: FIGS. 7A-B. Effect of SPC-insulins on lowering blood glucose level in vivo. The purified yeast-(FIG. 7A) or E. coli-(FIG. 7B) expressed SPC-insulin-P (p-insulin) and SPC-insulin-PP (2p-insulin) (20-24 μg/mouse) was injected (intraperitoneally) into normal mice. The glucose levels of the blood collected from tail vein at the increasing time points were measured using Contour^next One glucose meter (n=6). Humulin R (20-24 μg/mouse) was used as a positive control (n=6, M±SE). The mice were under normal diets.
FIGS. 8A-B. (FIG. 8A) Effect of SPC-insulins on lowering blood glucose level of normal mice using subcutaneous injection. The yeast-expressed SPC-insulin-P (p-insulin) and SPC-insulin-PP (2p-insulin) (20-30 μg/mouse) was injected subcutaneously into the normal mice (n=6). (FIG. 8B) Effects of the purified E. coli-expressed SPC-insulins on lowering blood glucose level of STZ-induced type-1 diabetic mice. 20-30 μg/mouse of the purified E. coli-expressed SPC-P (P-insulin) or SPC-insulin-PP (PP-insulin) was intraperitoneally injected into the STZ-induced Type-1 diabetic mice (with an elevated blood glucose levels of 370-400 mg/dl, n=6). The glucose levels of the blood collected from the mouse tail vein at the increasing time points were measured using Contour^next One glucose meter. Humulin R (20-24 μg/mouse) was used as a positive control (n=6, M±SE). […]

[2] = system: STZ-induced type-1 diabetic mice; assay: Lowering of blood glucose level in STZ-induced type-1 diabetic mice; type: in vivo; details: intraperitoneal, 20-30 μg/mouse; for start of working after injection: purified E. coli-expressed
Method: FIGS. 8A-B. (FIG. 8A) Effect of SPC-insulins on lowering blood glucose level of normal mice using subcutaneous injection. The yeast-expressed SPC-insulin-P (p-insulin) and SPC-insulin-PP (2p-insulin) (20-30 μg/mouse) was injected subcutaneously into the normal mice (n=6). (FIG. 8B) Effects of the purified E. coli-expressed SPC-insulins on lowering blood glucose level of STZ-induced type-1 diabetic mice. 20-30 μg/mouse of the purified E. coli-expressed SPC-P (P-insulin) or SPC-insulin-PP (PP-insulin) was intraperitoneally injected into the STZ-induced Type-1 diabetic mice (with an elevated blood glucose levels of 370-400 mg/dl, n=6). The glucose levels of the blood collected from the mouse tail vein at the increasing time points were measured using Contour^next One glucose meter. Humulin R (20-24 μg/mouse) was used as a positive control (n=6, M±SE). STZ-Control=oval; Hummulin R=rectangle; SPC-Insulin-P=upward pointing triangle; SPC-Insulin-PP=downward pointing triangle.
The second animal model is the STZ-induced type-1 diabetic mouse. The mice received STZ injection quickly developed into type 1 diabetes because STZ destroyed the insulin-producing cells in pancreas and elevated the glucose level (FIGS. 8A-B, blood glucose level labeled with STZ). The both of the purified SPC-insulin-P and -PP were tested on the diabetic mice. Similar to that of the normal mice, the SPC-insulins started working around 1-1.5 hours after injection, reached to the best therapeutic effects around 4 hours, and then last for 24-48 hours (FIGS. 8A-B).

Substance | duration of action [1] | duration of blood glucose lowering effect (normal mice) | duration of effect [2] | time to best therapeutic effect [2] | start of working after injection [2]
insulin Glargine | 18 to 24 h |  |  |  | 
Humulin R: commercial regular human insulin, two-chain, used as positive control |  | 4 to 8 h |  |  | 
SPC-insulin-P: single polypeptide chain human insulin, b-chain C-terminus linked to a-chain N-terminus by one proline residue |  |  | 24 to 48 h | around 4 hours | 1 to 1.5 h
insulin Detemir | 18 to 24 h |  |  |  | 
SPC-insulin-PP: single polypeptide chain human insulin, b-chain linked to a-chain by two proline residues |  |  | 24 to 48 h | around 4 hours | 1 to 1.5 h
